Laboratory results from US20250163022A1, “PARP1 INHIBITORS” (Synnovation Therapeutics, Inc., priority 2021, published 2025).

Molecular target: T1, PARP1 (Homo sapiens, UniProt P09874)
T1 construct: HeLa cells (wide-type with PARP1 gene) were purchased from ATCC; host or cells: HeLa (wild type)
Test: In-Cell Western measurement of PARylation in PARP1 WT and knockout cells
Format: cell-based
Conditions: HeLa cells (wide-type with PARP1 gene); hydrogen peroxide-induced PARylation; compounds 30 min, then 10 mM hydrogen peroxide 15 min; read-out: HeLa_WT_IC50
From the text: The purpose of this cell-based assay is to measure the potency and selectivity of synthesized PARP inhibitors in suppressing hydrogen peroxide-induced PARylation in cells with and without PARP1 expression. Several cell lines were used in this assay. The human PARP1 knockout HEK-293T cell line (#ab266598) was purchased from Abcam, and its corresponding wide-type control is the human wild-type HEK-293T cell line (#ab255449). The HAP1 isogenic cell lines with and without the PARP1 gene (#HZGHC003943c006) were purchased from Horizon Discovery. HeLa cells (wide-type with PARP1 gene) were purchased from ATCC. Cells were cultured using complete medium containing 10% fetal bovine serum. One day before the assay, cells were seeded in 96-well plates at the density of 20,000 cells per well in 100 uL complete medium. Compounds were dissolved using DMSO and diluted to the working concentrations using complete medium. Cells were pre-treated with compounds for 30 min and then stimulated with 10 mM hydrogen peroxide for 15 min. After stimulation, cells were immediately fixed using ice-cold methanol for 20 min. After fixation, cells were washed using 1×PBST buffer for 3 times, 5 min each time, to eliminate residual methanol. Cells were blocked for 2 h at room temperature in blocking buffer (LI-COR Biosciences, #927-70001). Primary antibody was diluted in diluent buffer (LI-COR Biosciences, #927-75001, 1:200) at 50 uL per well. Cells were incubated with the primary antibody at 4° C. for 18 h. The wells were then washed using 1×PBST for 3 times, 5 min each time. IRDye® 680RD Goat anti-Mouse IgG (H+L) secondary antibody was diluted at 1/2000 using the diluent buffer and added at 100 μL per well. Secondary antibody incubation was for 1 h at room temperature. Cells were then washed using 1×PBST for 3 times, 5 min each time. The signal was detected and analyzed using LI-COR Odyssey DLx Imaging system. Data were collected and further processed using GraphPad Prism for IC50 estimation.

T1 sequence (P09874 whole entry): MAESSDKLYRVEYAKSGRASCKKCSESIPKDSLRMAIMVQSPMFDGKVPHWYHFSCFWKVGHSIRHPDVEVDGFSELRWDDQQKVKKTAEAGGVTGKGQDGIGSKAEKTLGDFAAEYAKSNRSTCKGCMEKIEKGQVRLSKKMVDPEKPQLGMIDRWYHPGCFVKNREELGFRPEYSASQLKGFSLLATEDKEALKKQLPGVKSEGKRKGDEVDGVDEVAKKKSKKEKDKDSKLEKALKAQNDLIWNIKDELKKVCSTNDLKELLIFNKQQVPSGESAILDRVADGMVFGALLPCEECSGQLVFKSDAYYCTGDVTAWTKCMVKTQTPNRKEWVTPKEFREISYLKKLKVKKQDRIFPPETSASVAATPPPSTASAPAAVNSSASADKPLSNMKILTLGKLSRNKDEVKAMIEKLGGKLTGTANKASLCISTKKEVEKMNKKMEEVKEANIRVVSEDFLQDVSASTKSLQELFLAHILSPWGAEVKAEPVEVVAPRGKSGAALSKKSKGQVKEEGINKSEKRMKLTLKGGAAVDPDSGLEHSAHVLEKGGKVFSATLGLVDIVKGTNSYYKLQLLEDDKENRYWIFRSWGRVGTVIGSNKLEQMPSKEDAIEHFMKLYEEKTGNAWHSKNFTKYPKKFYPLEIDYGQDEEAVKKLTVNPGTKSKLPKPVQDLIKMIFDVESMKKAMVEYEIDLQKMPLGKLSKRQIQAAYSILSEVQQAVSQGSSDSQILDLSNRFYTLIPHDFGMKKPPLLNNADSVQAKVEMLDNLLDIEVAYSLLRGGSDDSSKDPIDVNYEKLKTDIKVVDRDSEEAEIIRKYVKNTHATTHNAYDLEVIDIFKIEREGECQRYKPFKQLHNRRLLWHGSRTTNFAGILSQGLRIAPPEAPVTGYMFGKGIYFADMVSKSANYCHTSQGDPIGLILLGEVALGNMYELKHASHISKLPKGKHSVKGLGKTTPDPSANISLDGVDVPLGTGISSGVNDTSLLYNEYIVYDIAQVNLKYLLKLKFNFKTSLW

| IC50 | SMILES |
| --- | --- |
| ≤ 10 nM | CCn1c(=O)[nH]c2cc(CN3CCN(c4ccc(C(=O)NC)nc4F)CC3)ccc2c1=O [Compound I-29, 5-(4-((3-Ethyl-2,4-dioxo-1,2,3,4-tetrahydroquinazolin-7-yl)methyl)piperazin-1-yl)-6-fluoro-N-methylpicolinamide] |
| ≤ 10 nM | CNC(=O)c1ccc(N2CCN(Cc3cc4[nH]c(=O)c5c(c4cn3)CCC5)CC2)c(C)n1 [Compound I-30, N,6-dimethyl-5-(4-((6-oxo-6,7,8,9-tetrahydro-5H-cyclopenta[c][1,6]naphthyridin-3-yl)methyl)piperazin-1-yl)picolinamide] |
| ≤ 10 nM | CCn1c(=O)[nH]c2cc(CN3CCN(c4ccc(C(=O)NC)nc4C(F)(F)F)CC3)ccc2c1=O [Compound I-31, 5-(4-((3-Ethyl-2,4-dioxo-1,2,3,4-tetrahydroquinazolin-7-yl)methyl)piperazin-1-yl)-N-methyl-6-(trifluoromethyl)picolinamide] |
| ≤ 10 nM | CCn1c(=O)[nH]c2cc(CN3CCN(c4ccc(C(=O)NC)nc4C)CC3)cc(Cl)c2c1=O [Compound I-32, 5-(4-((5-chloro-3-ethyl-2,4-dioxo-1,2,3,4-tetrahydroquinazolin-7-yl)methyl)piperazin-1-yl)-N,6-dimethylpicolinamide] |
| ≤ 10 nM | CCn1c(=O)[nH]c2cc(CN3CCN(c4ccc(C(=O)NC)nc4F)CC3)cc(F)c2c1=O [Compound I-33, 5-(4-((3-Ethyl-5-fluoro-2,4-dioxo-1,2,3,4-tetrahydroquinazolin-7-yl)methyl)piperazin-1-yl)-6-fluoro-N-methylpicolinamide] |
| ≤ 10 nM | CCN1C(=O)Nc2c(F)c(CN3CCN(c4ccc(C(=O)NC)nc4C)CC3)cc3c2c1nn3C [Compound I-34, 5-(4-((3-Ethyl-6-fluoro-1-methyl-4-oxo-1,3,4,5-tetrahydropyrazolo[3,4,5-de]quinazolin-7-yl)methyl)piperazin-1-yl)-N,6-dimethylpicolinamide] |
| ≤ 10 nM | CCN1C(=O)Nc2c(F)c(CN3CCN(c4ccc(C(=O)NC)nc4C)CC3)cc3ncnc1c23 [Compound I-35, 5-(4-((3-ethyl-9-fluoro-2-oxo-2,3-dihydro-1H-pyrimido[4,5,6-de]quinazolin-8-yl)methyl)piperazin-1-yl)-N,6-dimethylpicolinamide] |
| ≤ 10 nM | [2H]C([2H])([2H])NC(=O)c1ccc(N2CCN(Cc3cc(F)c4c(=O)n(CC)c(=O)[nH]c4c3)CC2)c(C([2H])([2H])[2H])n1 [Compound I-36, 5-(4-((3-Ethyl-5-fluoro-2,4-dioxo-1,2,3,4-tetrahydroquinazolin-7-yl)methyl)piperazin-1-yl)-N,6-bis(methyl-d3)picolinamide] |
| ≤ 10 nM | CCn1c(=O)[nH]c2cc(CN3CCN(c4ccc(C(=O)NC)nc4C)CC3)cc(C(F)F)c2c1=O [Compound I-37, 5-(4-((5-(Difluoromethyl)-3-ethyl-2,4-dioxo-1,2,3,4-tetrahydroquinazolin-7-yl)methyl)piperazin-1-yl)-N,6-dimethylpicolinamide] |
| ≤ 10 nM | CNC(=O)c1ccc(N2CCN(Cc3cc(OC)c4c(=O)n(C)c(=O)[nH]c4c3F)CC2)c(C)n1 [Compound I-38, 5-(4-((8-Fluoro-5-methoxy-3-methyl-2,4-dioxo-1,2,3,4-tetrahydroquinazolin-7-yl)methyl)piperazin-1-yl)-N,6-dimethylpicolinamide] |
| ≤ 10 nM | CCn1c(=O)[nH]c2c(F)c(CN3CCN(c4ccc(C(=O)NC)nc4C)CC3)cc(Cl)c2c1=O [Compound I-39, 5-(4-((5-chloro-3-ethyl-8-fluoro-2,4-dioxo-1,2,3,4-tetrahydroquinazolin-7-yl)methyl)piperazin-1-yl)-N,6-dimethylpicolinamide] |
| ≤ 10 nM | CCn1c(=O)[nH]c2c(F)c(CN3CCN(c4ccc(C(=O)NC)nc4C)CC3)cc(C3CC3)c2c1=O [Compound I-40, 5-(4-((5-Cyclopropyl-3-ethyl-8-fluoro-2,4-dioxo-1,2,3,4-tetrahydroquinazolin-7-yl)methyl)piperazin-1-yl)-N,6-dimethylpicolinamide] |
| ≤ 10 nM | CCn1c(=O)[nH]c2c(F)c(CN3CCN(c4ccc(C(=O)NC)nc4C)CC3)cc(CO)c2c1=O [Compound I-41, 5-(4-((3-Ethyl-8-fluoro-5-(hydroxymethyl)-2,4-dioxo-1,2,3,4-tetrahydroquinazolin-7-yl)methyl)piperazin-1-yl)-N,6-dimethylpicolinamide] |
| ≤ 10 nM | CCn1c(=O)[nH]c2c(F)c(CN3CCN(c4ccc(C(=O)NC)nc4C)CC3)cc(CC#N)c2c1=O [Compound I-42, 5-(4-((5-(Cyanomethyl)-3-ethyl-8-fluoro-2,4-dioxo-1,2,3,4-tetrahydroquinazolin-7-yl)methyl)piperazin-1-yl)-N,6-dimethylpicolinamide] |
| ≤ 10 nM | CCNC(=O)c1ccc(N2CCN(Cc3cc(Cl)c4c(=O)n(C)c(=O)[nH]c4c3)CC2)c(C)n1 [Compound I-43, 5-(4-((5-Chloro-3-methyl-2,4-dioxo-1,2,3,4-tetrahydroquinazolin-7-yl)methyl)piperazin-1-yl)-N-ethyl-6-methylpicolinamide] |
| ≤ 10 nM | [2H]C([2H])([2H])NC(=O)c1ccc(N2CCN(Cc3ccc4c(=O)n(CC)c(=O)[nH]c4c3)CC2)c(C([2H])([2H])[2H])n1 [Compound I-44, 5-(4-((3-ethyl-2,4-dioxo-1,2,3,4-tetrahydroquinazolin-7-yl)methyl)piperazin-1-yl)-N,6-bis(methyl-d3)picolinamide] |
| ≤ 10 nM | CCN1C(=O)Nc2cc(CN3CCN(c4ccc(C(=O)NC)nc4C)CC3)cc3cnnc1c23 [Compound I-45, 5-[4-[(12-Ethyl-11-oxo-2,3,10,12-tetrazatricyclo[7.3.1.05,13]trideca-1,3,5,7,9 (13)-pentaen-7-yl)methyl]piperazin-1-yl]-N,6-dimethyl-pyridine-2-carboxamide] |
| ≤ 10 nM | CCn1c(=O)[nH]c2c(F)c(CN3CCN(c4ccc(C(=O)NC)nc4C)CC3)cc(COC)c2c1=O [Compound I-46, 5-(4-((3-Ethyl-8-fluoro-5-(methoxymethyl)-2,4-dioxo-1,2,3,4-tetrahydroquinazolin-7-yl)methyl)piperazin-1-yl)-N,6-dimethylpicolinamide] |
| ≤ 10 nM | CNC(=O)c1ccc(N2CCN(Cc3cc(C(F)F)c4c(=O)n(C)c(=O)[nH]c4c3)CC2)c(C)n1 [Compound I-47, 5-(4-((5-(Difluoromethyl)-3-methyl-2,4-dioxo-1,2,3,4-tetrahydroquinazolin-7-yl)methyl)piperazin-1-yl)-N,6-dimethylpicolinamide] |
| ≤ 10 nM | CCNC(=O)c1ccc(N2CCN(Cc3cc(Cl)c4c(=O)n(CC)c(=O)[nH]c4c3)CC2)c(C)n1 [Compound I-48, 5-(4-((5-chloro-3-ethyl-2,4-dioxo-1,2,3,4-tetrahydroquinazolin-7-yl)methyl)piperazin-1-yl)-N-ethyl-6-methylpicolinamide] |
| ≤ 10 nM | CNC(=O)c1ccc(N2CCN(Cc3cc(C4CC4)c4c(=O)n(C)c(=O)[nH]c4c3F)CC2)c(C)n1 [Compound I-49, 5-(4-((5-Cyclopropyl-8-fluoro-3-methyl-2,4-dioxo-1,2,3,4-tetrahydroquinazolin-7-yl)methyl)piperazin-1-yl)-N,6-dimethylpicolinamide] |
| ≤ 10 nM | CCN1C(=O)Nc2c(F)c(CN3CCN(c4ccc(C(=O)NC)nc4C)CC3)cc3nc(OC)nc1c23 [Compound I-50, 5-(4-((3-Ethyl-9-fluoro-5-methoxy-2-oxo-2,3-dihydro-1H-pyrimido[4,5,6-de]quinazolin-8-yl)methyl)piperazin-1-yl)-N,6-dimethylpicolinamide] |
| 10 to 100 nM | CCN1C(=O)Nc2c(F)c(CN3CCN(c4ccc(C(=O)NC)nc4C)CC3)cc3c2c1nc(=O)n3C [Compound I-51, 5-(4-((3-Ethyl-9-fluoro-6-methyl-2,5-dioxo-2,3,5,6-tetrahydro-1H-pyrimido[4,5,6-de]quinazolin-8-yl)methyl)piperazin-1-yl)-N,6-dimethylpicolinamide] |
| ≤ 10 nM | CCN1C(=O)Nc2c(F)c(CN3CCN(c4ccc(C(=O)NC)nc4C)CC3)cc3nc(C)nc1c23 [Compound I-52, 5-(4-((3-Ethyl-9-fluoro-5-methyl-2-oxo-2,3-dihydro-1H-pyrimido[4,5,6-de]quinazolin-8-yl)methyl)piperazin-1-yl)-N,6-dimethylpicolinamide] |
| ≤ 10 nM | CCN1C(=O)Nc2c(F)c(CN3CCN(c4ccc(C(=O)NC)nc4C)CC3)cc3c(C)nnc1c23 [Compound I-54, 5-(4-((9-Ethyl-6-fluoro-3-methyl-8-oxo-8,9-dihydro-7H-pyridazino[3,4,5-de]quinazolin-5-yl)methyl)piperazin-1-yl)-N,6-dimethylpicolinamide] |
